In data set [1] the test system is un-transfected HEK293 cells. The experiment in a line: Background binding to un-transfected HEK293 cells (cell microarray suitability). Type of data set: cell-based, human. The following applies: biotin-labeled molecules. The protocol: To evaluate potential off-target binding, six biotin-labeled molecules were tested in a cell microarray platform having 6,416 different human proteins spanning diverse functions and subcellular locations.

Data set [2] is described as follows: in vivo. The following applies: Sprague Dawley, rat, iv. The protocol:
To begin, double jugular vein-cannulated Sprague Dawley rats were dosed with bolus intravenous injections of miniproteins (0.03-0.3 mg/kg) and FITC-sinistrin. Nine blood collection timepoints were taken from 0-2 h, processed to plasma with K2 EDTA, and were frozen for subsequent bioanalysis. Plasma miniprotein concentrations were measured by LC-MS/MS. To control for inter-animal renal clearance differences, and to compare with glomerular filtration rate (GFR), the miniprotein was co-formulated with a molecular marker of GFR, FITC-sinistrin (FS) (Pill et al., 2005). Plasma FITC-sinistrin was measured fluorometrically. All unknown sample measurements were interpolated against known authentic standards spiked into normal rat plasma to calculate concentration. Finally, non-compartmental analysis was performed to estimate plasma pharmacokinetic parameters.

The results in this text go back to US12427212B2, “Nectin-4 binding miniproteins, conjugates and uses thereof” (Aktis Oncology, Inc., priority 2023, dated 2025).

One may read the half-life as the time in which the quantity being followed falls by half. Read a high half-life as slow decline.

Bridges are numbered along the chain shown (N, C = ends). [ ]: non-standard residue; d: D form. The star is where a group is joined. DOTA = O=C(O)CN1CCN(CC(=O)O)CCN(CC(=O)*)CCN(CC(=O)O)CC1; Biotin = O=C1N[C@H]2[C@H](CS[C@H]2CCCCC(=O)*)N1; Lys(Me3) = C[N+](C)(C)CCCC[C@H](N)C(=O)O; Cit = NC(=O)NCCC[C@H](N)C(=O)O; PEG4 = NCCOCCOCCOCCOCCC(=O)O

As to “{Biotin-PEG4}-CDYDEQFFTALA[Cit]LRGGDICEYIQA[Lys(Me3)]FQYLPGLCIEEILDNLGCS-OH (disulfide 1-34, 20-44) [Compound C259]”, the “Background binding to un-transfected HEK293 cells” value (from here on “Background binding”) in data set [1] is given as “low-background binding”.

Turning to `CC[C@H](C)[C@@H]1NC(=O)[C@H](Cc2ccc(O)cc2)NC(=O)[C@H](CCC(=O)O)NC(=O)[C@@H]2CSSC[C@@H](C(=O)N[C@@H](CO)C(=O)O)NC(=O)CNC(=O)[C@H](CC(C)C)NC(=O)[C@H](CC(N)=O)NC(=O)[C@H](CC(=O)O)NC(=O)[C@H](CC(C)C)NC(=O)[C@H]([C@@H](C)CC)NC(=O)[C@H](CCC(=O)O)NC(=O)[C@H](CCC(=O)O)NC(=O)[C@H]([C@@H](C)CC)NC(=O)[C@H](CSSC[C@H](NC(=O)CCOCCOCCOCCOCCNC(=O)CCCC[C@@H]3SC[C@@H]4NC(=O)N[C@@H]43)C(=O)N[C@@H](CC(=O)O)C(=O)N[C@@H](Cc3ccc(O)cc3)C(=O)N[C@@H](CC(=O)O)C(=O)N[C@@H](CCC(=O)O)C(=O)N[C@@H](CCC(N)=O)C(=O)N[C@@H](Cc3ccccc3)C(=O)N[C@@H](Cc3ccccc3)C(=O)N[C@@H]([C@@H](C)O)C(=O)N[C@@H](C)C(=O)N[C@@H](CC(C)C)C(=O)N[C@@H](C)C(=O)N[C@@H](CCCNC(=N)N)C(=O)N[C@@H](CC(C)C)C(=O)N[C@@H](CCCNC(=N)N)C(=O)NCC(=O)N[C@@H](C)C(=O)N[C@@H](CC(=O)O)C(=O)N[C@@H]([C@@H](C)CC)C(=O)N2)NC(=O)[C@H](CCC(=O)O)NC(=O)CNC(=O)[C@@H]2CCCN2C(=O)[C@H](CC(C)C)NC(=O)[C@H](Cc2ccc(O)cc2)NC(=O)[C@H](CCC(N)=O)NC(=O)[C@H](Cc2ccccc2)NC(=O)[C@H](CO)NC(=O)[C@H](C)NC(=O)[C@H](CCC(N)=O)NC1=O` [Compound C247], the “Background binding” value in data set [1] is given as “low-background binding”.

Turning to `CC[C@H](C)[C@@H]1NC(=O)[C@H](Cc2ccc(O)cc2)NC(=O)[C@H](CCC(=O)O)NC(=O)[C@@H]2CSSC[C@@H](C(=O)N[C@@H](CO)C(=O)O)NC(=O)CNC(=O)[C@H](CC(C)C)NC(=O)[C@H](CC(N)=O)NC(=O)[C@H](CC(=O)O)NC(=O)[C@H](CC(C)C)NC(=O)[C@H]([C@@H](C)CC)NC(=O)[C@H](CCC(=O)O)NC(=O)[C@H](CCC(=O)O)NC(=O)[C@H]([C@@H](C)CC)NC(=O)[C@H](CSSC[C@H](NC(=O)CCOCCOCCOCCOCCNC(=O)CCCC[C@@H]3SC[C@@H]4NC(=O)N[C@@H]43)C(=O)N[C@@H](CC(=O)O)C(=O)N[C@@H](Cc3ccc(O)cc3)C(=O)N[C@@H](CC(=O)O)C(=O)N[C@@H](CCC(=O)O)C(=O)N[C@@H](CCC(N)=O)C(=O)N[C@@H](Cc3ccccc3)C(=O)N[C@@H](Cc3ccccc3)C(=O)N[C@@H]([C@@H](C)O)C(=O)N[C@@H](C)C(=O)N[C@@H](CC(C)C)C(=O)N[C@@H](CCCCN)C(=O)N[C@@H](CCCNC(=N)N)C(=O)N[C@@H](CC(C)C)C(=O)N[C@@H](CCCNC(=N)N)C(=O)NCC(=O)NCC(=O)N[C@@H](CC(=O)O)C(=O)N[C@@H]([C@@H](C)CC)C(=O)N2)NC(=O)[C@H](CC(C)C)NC(=O)CNC(=O)[C@@H]2CCCN2C(=O)[C@H](CC(C)C)NC(=O)[C@H](Cc2ccc(O)cc2)NC(=O)[C@H](CCC(N)=O)NC(=O)[C@H](Cc2ccccc2)NC(=O)[C@H](CO)NC(=O)[C@H](C)NC(=O)[C@H](CCC(N)=O)NC1=O` [Compound C190], in data set [1], the “Background binding” value is on record as “low-background binding”.

`CC[C@H](C)[C@@H]1NC(=O)[C@H](Cc2ccc(O)cc2)NC(=O)[C@H](CCC(=O)O)NC(=O)[C@@H]2CSSC[C@@H](C(=O)N[C@@H](CO)C(=O)O)NC(=O)CNC(=O)[C@H](CC(C)C)NC(=O)[C@H](CC(N)=O)NC(=O)[C@H](CC(=O)O)NC(=O)[C@H](CC(C)C)NC(=O)[C@H]([C@@H](C)CC)NC(=O)[C@H](CCC(=O)O)NC(=O)[C@H](CCC(=O)O)NC(=O)[C@H]([C@@H](C)CC)NC(=O)[C@H](CSSC[C@H](NC(=O)CCOCCOCCOCCOCCNC(=O)CN3CCN(CC(=O)O)CCN(CC(=O)O)CCN(CC(=O)O)CC3)C(=O)N[C@@H](CC(=O)O)C(=O)N[C@@H](Cc3ccc(O)cc3)C(=O)N[C@@H](CC(=O)O)C(=O)N[C@@H](CCC(=O)O)C(=O)N[C@@H](CCC(N)=O)C(=O)N[C@@H](Cc3ccccc3)C(=O)N[C@@H](Cc3ccccc3)C(=O)N[C@@H]([C@@H](C)O)C(=O)N[C@@H](C)C(=O)N[C@@H](CC(C)C)C(=O)N[C@@H](CCCCN)C(=O)N[C@@H](CCCNC(=N)N)C(=O)N[C@@H](CC(C)C)C(=O)N[C@@H](CCCNC(=N)N)C(=O)NCC(=O)NCC(=O)N[C@@H](CC(=O)O)C(=O)N[C@@H]([C@@H](C)CC)C(=O)N2)NC(=O)[C@H](CC(C)C)NC(=O)CNC(=O)[C@@H]2CCCN2C(=O)[C@H](CC(C)C)NC(=O)[C@H](Cc2ccc(O)cc2)NC(=O)[C@H](CCC(N)=O)NC(=O)[C@H](Cc2ccccc2)NC(=O)[C@H](CO)NC(=O)[C@H](C)NC(=O)[C@H](CCC(N)=O)NC1=O` [Compound C240] displayed a half-life in data set [2] of 29.7 min.

In data set [2], “{DOTA-PEG4}-CDYDEQFFTALA[Cit]LRGGDICEYIQA[Lys(Me3)]FQYLPGLCIEEILDNLGCS-OH (disulfide 1-34, 20-44 (inferred)) [Compound C261]” gave a half-life of 28.7 min.

For “{DOTA-PEG4}-CEYDEQFFTALARLRGGDICEYIQAKFQYLPGLCIEEILDNLGCS-OH (disulfide 1-34, 20-44) [Compound C219]”, the half-life in data set [2] is 25.4 min.

As for `CC[C@H](C)[C@@H]1NC(=O)[C@H](Cc2ccc(O)cc2)NC(=O)[C@H](CCC(=O)O)NC(=O)[C@@H]2CSSC[C@@H](C(=O)N[C@@H](CO)C(=O)O)NC(=O)CNC(=O)[C@H](CC(C)C)NC(=O)[C@H](CC(N)=O)NC(=O)[C@H](CC(=O)O)NC(=O)[C@H](CC(C)C)NC(=O)[C@H]([C@@H](C)CC)NC(=O)[C@H](CCC(=O)O)NC(=O)[C@H](CCC(=O)O)NC(=O)[C@H]([C@@H](C)CC)NC(=O)[C@H](CSSC[C@H](NC(=O)CCOCCOCCOCCOCCNC(=O)CN3CCN(CC(=O)O)CCN(CC(=O)O)CCN(CC(=O)O)CC3)C(=O)N[C@@H](CC(=O)O)C(=O)N[C@@H](Cc3ccc(O)cc3)C(=O)N[C@@H](CC(=O)O)C(=O)N[C@@H](CCC(=O)O)C(=O)N[C@@H](CCC(N)=O)C(=O)N[C@@H](Cc3ccccc3)C(=O)N[C@@H](Cc3ccccc3)C(=O)N[C@@H]([C@@H](C)O)C(=O)N[C@@H](C)C(=O)N[C@@H](CC(C)C)C(=O)N[C@@H](CCCCN)C(=O)N[C@@H](CCCNC(=N)N)C(=O)N[C@@H](CC(C)C)C(=O)N[C@@H](CCCNC(=N)N)C(=O)NCC(=O)N[C@@H](C)C(=O)N[C@@H](CC(=O)O)C(=O)N[C@@H]([C@@H](C)CC)C(=O)N2)NC(=O)[C@H](CCC(=O)O)NC(=O)CNC(=O)[C@@H]2CCCN2C(=O)[C@H](CC(C)C)NC(=O)[C@H](Cc2ccc(O)cc2)NC(=O)[C@H](CCC(N)=O)NC(=O)[C@H](Cc2ccccc2)NC(=O)[C@H](CO)NC(=O)[C@H](C)NC(=O)[C@H](CCC(N)=O)NC1=O` [Compound C270], in data set [2], the half-life was determined as 28.3 min.

On to “{DOTA-PEG4}-CEYDEQFFTALKALRGGDICYYIQASFNYLPDLCIEEILDNLGCS-OH (disulfide 1-34, 20-44 (inferred)) [Compound C114]”, for which the half-life in data set [2] was 25.5 min.

In the case of `CC[C@H](C)[C@@H]1NC(=O)[C@H](Cc2ccc(O)cc2)NC(=O)[C@H](CCC(=O)O)NC(=O)[C@@H]2CSSC[C@@H](C(=O)N[C@@H](CO)C(=O)O)NC(=O)CNC(=O)[C@H](CC(C)C)NC(=O)[C@H](CC(N)=O)NC(=O)[C@H](CC(=O)O)NC(=O)[C@H](CC(C)C)NC(=O)[C@H]([C@@H](C)CC)NC(=O)[C@H](CCC(=O)O)NC(=O)[C@H](CCC(=O)O)NC(=O)[C@H]([C@@H](C)CC)NC(=O)[C@H](CSSC[C@H](NC(=O)CCOCCOCCOCCOCCNC(=O)CN3CCN(CC(=O)O)CCN(CC(=O)O)CCN(CC(=O)O)CC3)C(=O)N[C@@H](CC(=O)O)C(=O)N[C@@H](Cc3ccc(O)cc3)C(=O)N[C@@H](CC(=O)O)C(=O)N[C@@H](CCC(=O)O)C(=O)N[C@@H](CCC(N)=O)C(=O)N[C@@H](Cc3ccccc3)C(=O)N[C@@H](Cc3ccccc3)C(=O)N[C@@H]([C@@H](C)O)C(=O)N[C@@H](C)C(=O)N[C@@H](CC(C)C)C(=O)N[C@@H](C)C(=O)N[C@@H](CCCNC(=N)N)C(=O)N[C@@H](CC(C)C)C(=O)N[C@@H](CCCNC(=N)N)C(=O)NCC(=O)N[C@@H](C)C(=O)N[C@@H](CC(=O)O)C(=O)N[C@@H]([C@@H](C)CC)C(=O)N2)NC(=O)[C@H](CCC(=O)O)NC(=O)CNC(=O)[C@@H]2CCCN2C(=O)[C@H](CC(C)C)NC(=O)[C@H](Cc2ccc(O)cc2)NC(=O)[C@H](CCC(N)=O)NC(=O)[C@H](Cc2ccccc2)NC(=O)[C@H](CO)NC(=O)[C@H](C)NC(=O)[C@H](CCC(N)=O)NC1=O` [Compound C246], the half-life in data set [2] stood at 38 min.
